Assay results reported in PubChem BioAssay AID1996.
Converted amounts (≈) assume the structure as drawn.

Conditions: buffer; pH 7.4; 200.0 µM

| Structure (SMILES) | solubility kinetic |
| --- | --- |
| CCCCN(C)CCNC(=O)C(NC(=O)C1CCC(C)CC1)C(C)C (stereo unspecified) | > 53 µg/mL |
| Cc1ccc(/C=C2\SC(N3CCCCC3)=NC2=O)cc1 | 5.7 µg/mL (≈ 19.9 µM) |
| Cc1nn2c(-c3ccncc3)ccnc2c1Cl | > 36.7 µg/mL |
| CC[C@H](C)[C@H](NC(N)=O)C(=O)Nc1ccccc1F | > 40.1 µg/mL |
| Cn1ccsc1=NC(=O)c1ccc([N+](=O)[O-])o1 | 18.4 µg/mL (≈ 72.7 µM) |
| O=c1[nH]c(C(F)(F)F)nc2ccc3ccccc3c12 | > 39.6 µg/mL |
| O=C1COc2ccc(C(=O)COC(=O)c3ccc(F)cc3Cl)cc2N1 | 5.3 µg/mL (≈ 14.6 µM) |
| CCOCCc1c(O)[nH]c(=S)[nH]c1=O | > 32.4 µg/mL |
| CCOC(=O)c1ccc(NC(=O)CN2C(=O)CN(C(C)=O)C2=S)cc1 | 51.8 µg/mL (≈ 143 µM) |
| O=C(O)C(Cc1c[nH]c2ccccc12)N1C(=O)c2ccccc2C1=O (stereo unspecified) | 41.4 µg/mL (≈ 124 µM) |
| CN(C(=O)Nc1cccc(C(F)(F)F)c1)C1CCCCC1 | < 0.3 µg/mL |
| Cc1ccc(C(=O)Nc2ccc3c(c2)C(=O)N(CC2CCCO2)C3=O)cc1 (stereo unspecified) | 1 µg/mL (≈ 2.74 µM) |
| CCCCNc1ncnc2sc3c(c12)CCN(CCC)C3 | 44.9 µg/mL (≈ 147 µM) |
| O=C(O)c1ccc(OCC(F)(F)F)nc1 | > 33.2 µg/mL |
| O=C(COC(=O)C1CC2CCCC(C1)C2=O)Nc1cccc(F)c1 (stereo unspecified) | > 50 µg/mL |
| O=C(O)/C=C/c1cccc(NC(=O)Nc2ccc([N+](=O)[O-])cc2)c1 | > 49.1 µg/mL |
| COc1ccc(CNC(=O)Nc2cc(C)cc(C)c2)cc1 | 0.8 µg/mL (≈ 2.81 µM) |
| O=C1CCCc2nc3c(cc21)C(O)Oc1ccccc1-3 (stereo unspecified) | 19.4 µg/mL (≈ 72.6 µM) |
| Cc1cc(S(=O)(=O)NCc2ccco2)c(C)cc1Cl | > 45 µg/mL |
| CC(=O)c1cnc(-c2ccccn2)s1 | 28.3 µg/mL (≈ 139 µM) |
| O=C(O)CC1(CC(=O)Nc2ccc(Cl)cc2C(=O)c2ccccc2)CCCC1 | > 60 µg/mL |

| Structure (SMILES) | solubility kinetic |
| --- | --- |
| Cc1cccc(N2C(=O)C3CCCN3C2=S)c1 (stereo unspecified) | 36.1 µg/mL (≈ 147 µM) |
| Cc1cc([N+](=O)[O-])ccc1NC(=O)c1csc(C)c1C | 1.1 µg/mL (≈ 3.79 µM) |
| CC1CN(C(=S)Nc2ccccc2F)CC(C)O1 (stereo unspecified) | > 40.3 µg/mL |
| O=C(CCc1cccc(Cl)c1)N1CCCC(Nc2ccccc2)C1 (stereo unspecified) | 27.4 µg/mL (≈ 79.9 µM) |
| O=C(N/C=C\n1cnc2cc(C(F)(F)F)ccc21)c1ccc([N+](=O)[O-])cc1 | 2.8 µg/mL (≈ 7.44 µM) |
| Cc1c(-c2csc(N)n2)cnn1C | > 29.1 µg/mL |
| O=[N+]([O-])c1cc(F)c(N2CCCC2)cc1Br | 1.6 µg/mL (≈ 5.53 µM) |
| CCOc1ccc(NC(=O)NCCCCc2ccccc2)cc1 | 0.4 µg/mL (≈ 1.28 µM) |
| CCCCn1c(O)c(/C=C2\C=Nc3ccccc32)c(=O)[nH]c1=O | 3.1 µg/mL (≈ 9.96 µM) |
| CSc1ccc(CN(C)C(=O)C(c2ccccc2)c2ccccc2)cc1 | 7.7 µg/mL (≈ 21.3 µM) |
| O=C(Nc1ccccc1N1CCOCC1)c1ccc2ccccc2c1 | 0.8 µg/mL (≈ 2.41 µM) |
| CCC(C)c1ccccc1N=Cc1ccc2c(c1)OCO2 (stereo unspecified) | 7.1 µg/mL (≈ 25.2 µM) |
| Cn1cccc1CNC(=S)Nc1ccccc1Cl | 36.4 µg/mL (≈ 130 µM) |
| CC(C)(C)C(=O)N/C(N)=N/c1nc2ccccc2o1 | 8.1 µg/mL (≈ 31.1 µM) |
| CN(Cc1ccccc1)C(=O)c1ccccc1C(=O)OCC(=O)N(Cc1ccccc1)C(C)(C)C | 25.7 µg/mL (≈ 54.4 µM) |
| COc1cccc2[nH]c(C(=O)NCc3ccccc3)cc12.Cl | 10.9 µg/mL |
| Cc1ccc2c(c1)oc(=O)n2CC(=O)c1ccccc1 | 6.5 µg/mL (≈ 24.3 µM) |
| CCOCCCn1c(=NC(C)=O)c(C#N)cc2c(=O)n3cccc(C)c3nc21 | 33 µg/mL (≈ 87 µM) |
| Cc1ncsc1C(=O)Nc1cccc(C(F)(F)F)c1 | 40.7 µg/mL (≈ 142 µM) |
| O=C(COc1ccccc1Cl)Nc1ccc2c(c1)C(=O)NC2=O | < 0.4 µg/mL |
| CCOC(=O)c1cnc(/N=C/N(C)C)s1 | 29.6 µg/mL (≈ 130 µM) |

| Structure (SMILES) | solubility kinetic |
| --- | --- |
| CCc1ccc(C(=O)Nc2ccc(C)c(NS(C)(=O)=O)c2)cc1 | 39.7 µg/mL (≈ 119 µM) |
| Cc1cc(-c2onc(C)c2C(=O)Nc2ccc(C(F)(F)F)cc2)no1 | < 0.3 µg/mL |
| CSc1ncc(C(=O)Nc2ccccc2F)c(-c2ccccc2)n1 | 1.3 µg/mL (≈ 3.83 µM) |
| CC(C)OCCCNc1ncnc2c1nc1n2CCCC1 | > 43.4 µg/mL |
| COCCSc1ccccc1C(=O)Nc1ccc(Br)cc1 | 43.1 µg/mL (≈ 118 µM) |
| CNC(=O)c1c(NC(=O)c2ccco2)sc2c1CCCC2 | 2.7 µg/mL (≈ 8.87 µM) |
| CCCN(CCC)C(=O)c1cc2c(=O)n3cccc(C)c3nc2s1 | 34.7 µg/mL (≈ 101 µM) |
| N/C(=N\OC(=O)CCC1CCCC1)c1ccc(Cl)cc1 | 1.2 µg/mL (≈ 4.07 µM) |
| COc1cc(CNCCNC(=O)c2cccs2)cc(OC)c1OC | 44.1 µg/mL (≈ 126 µM) |
| CC1(C)Cc2nc3sc4c(SCC(=O)O)ncnc4c3cc2CO1 | 53.2 µg/mL (≈ 147 µM) |
| Cc1noc(C)c1NC(=O)NCCN1CCN(Cc2ccccc2)CC1 | > 53.6 µg/mL |
| O=C(NNC(=S)Nc1ccccc1C(F)(F)F)c1cccnc1 | > 51 µg/mL |
| COc1ccc(CNc2ccc3c(c2)CCC3)cc1Br | 5.6 µg/mL (≈ 16.9 µM) |
| COc1ccccc1CC(=O)N1CCN(c2ccc(F)cc2)CC1 | > 49.3 µg/mL |
| CCNc1cc(N2CCN(C)CC2)ccc1[N+](=O)[O-] | > 39.6 µg/mL |
| CC(C)CC(C(=O)Nc1cccc(O)c1)N1C(=O)c2ccccc2C1=O (stereo unspecified) | > 52.9 µg/mL |
| COc1ccc(CNC(=O)C(=O)NCCCn2ccnc2)cc1 | > 47.5 µg/mL |
| CCNc1nc(SCC(=O)OC)nc(N(C)C)n1 | > 40.7 µg/mL |
| CSc1ncc(CN2CCN(C(C)C)C(CCO)C2)cn1 (stereo unspecified) | > 46.6 µg/mL |
